Reference: publication PMC8950173 (Pharmaceuticals, 2022)

Key:
[1] = target: human recombinant HDAC3/NcoR2 (Homo sapiens, UniProt O15379); assay: Inhibition assay HDAC3 (fluorogenic substrate ZMAL); type: biochemical; details: for IC50: 60 min preincubation at 25 °C; for specificity ratio (HDAC1/HDAC3): HDAC1 over HDAC3, from IC50 values
Method: (§1) In vitro inhibitory activities against HDAC1−3 and HDAC6 were measured as previously published with minor modifications. […] Subsequently, 50 µL trypsin solution (0.4 mg/mL trypsin in buffer: 50 mM Tris−HCl, pH = 8.0, 100 mM NaCl) was added, followed by additional 30 min of incubation at 37 °C. […] All compounds were tested at least twice in duplicates.

[2] = target: T1, human recombinant HDAC2 (Homo sapiens, UniProt Q92769); assay: Inhibition assay HDAC2 (fluorogenic substrate ZMAL); type: biochemical; details: 60 min preincubation at 25 °C
T1 construct: purchased BPS Bioscience Inc. 50052
Method: as §1

[3] = target: T2, human recombinant HDAC6 (Homo sapiens, UniProt Q9UBN7); assay: Inhibition assay HDAC6 (fluorogenic substrate ZMAL); type: biochemical; details: for IC50: 15 min preincubation at 25 °C
T2 construct: purchased BPS Bioscience Inc. 50006
T2 sequence (Q9UBN7 1-1215): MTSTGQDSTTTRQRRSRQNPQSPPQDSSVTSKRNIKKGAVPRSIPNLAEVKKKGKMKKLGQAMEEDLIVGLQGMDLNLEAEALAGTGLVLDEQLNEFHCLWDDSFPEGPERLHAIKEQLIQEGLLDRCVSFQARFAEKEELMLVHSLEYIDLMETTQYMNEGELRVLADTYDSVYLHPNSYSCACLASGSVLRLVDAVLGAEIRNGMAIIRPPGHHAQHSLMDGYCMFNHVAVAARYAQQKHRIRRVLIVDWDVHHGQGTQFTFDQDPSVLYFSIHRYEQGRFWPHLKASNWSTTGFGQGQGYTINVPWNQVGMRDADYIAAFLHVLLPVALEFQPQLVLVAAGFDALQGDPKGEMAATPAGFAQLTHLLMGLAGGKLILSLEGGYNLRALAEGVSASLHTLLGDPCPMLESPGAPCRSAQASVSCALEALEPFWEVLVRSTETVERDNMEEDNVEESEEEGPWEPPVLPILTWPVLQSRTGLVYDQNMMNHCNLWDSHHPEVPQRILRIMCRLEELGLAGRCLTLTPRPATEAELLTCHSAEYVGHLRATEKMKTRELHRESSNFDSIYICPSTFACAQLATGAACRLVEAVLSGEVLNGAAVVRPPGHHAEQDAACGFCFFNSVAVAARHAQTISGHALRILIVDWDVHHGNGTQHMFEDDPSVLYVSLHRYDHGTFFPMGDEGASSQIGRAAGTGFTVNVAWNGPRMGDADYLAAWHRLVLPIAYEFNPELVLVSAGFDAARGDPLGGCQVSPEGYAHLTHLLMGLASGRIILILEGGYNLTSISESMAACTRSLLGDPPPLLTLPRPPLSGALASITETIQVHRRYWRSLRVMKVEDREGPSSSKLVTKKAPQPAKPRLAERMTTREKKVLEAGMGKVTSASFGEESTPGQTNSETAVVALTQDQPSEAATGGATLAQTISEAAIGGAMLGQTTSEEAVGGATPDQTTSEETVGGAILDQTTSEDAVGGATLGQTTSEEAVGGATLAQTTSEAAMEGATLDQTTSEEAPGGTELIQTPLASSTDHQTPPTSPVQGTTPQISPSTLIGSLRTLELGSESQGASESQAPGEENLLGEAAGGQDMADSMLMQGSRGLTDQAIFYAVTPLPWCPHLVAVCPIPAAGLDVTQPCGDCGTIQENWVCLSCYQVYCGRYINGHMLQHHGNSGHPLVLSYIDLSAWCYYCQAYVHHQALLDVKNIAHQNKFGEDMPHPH
Method: as §1

[4] = target: T3, human recombinant HDAC1 (Homo sapiens, UniProt Q13547); assay: Inhibition assay HDAC1 (fluorogenic substrate ZMAL); type: biochemical; details: 60 min preincubation at 25 °C
T3 construct: purchased BPS Bioscience Inc. 50051
Method: as §1

[5] = test system: rat F98 glioma cells; assay: MTS assay, cancer cell viability, F98; type: cell-based; details: 72 h, mean ± SD, n = 3, read-out: Cell Viability [%] (Vehicle = 100%) F98
Method: (§2) F98 cells (obtained from ATCC® Washington, DC, USA) and U251-MG cells (obtained from Drs A. Feldmann and N. Metwasi, Department of Radioimmunology, HZDR, Rossendorf, Germany) were cultivated in Dulbecco’s Modified Eagle Medium (DMEM, Gibco, Invitrogen, Dun Laoghaire, Ireland) supplemented with 10% heat inactivated fetal bovine serum (Gibco, Invitrogen, Dun Laoghaire, Ireland), and 100 U/mL penicillin and 100 µg/mL streptomycin (Gibco, Invitrogen, Dun Laoghaire, Ireland) in a humidified atmosphere in a CO2 incubator (37 °C, 5% CO2).
(§3) Proliferation of F98 and U251-MG cells was determined using a commercially available MTS assay (CellTiter 96® AQueous One Solution Cell Proliferation Assay, Promega GmbH, Walldorf, Germany). Briefly, the cells were seeded into 96-well plates at a density of 5 × 10^4 cells/well 24 h prior to the experiment at 37 °C in a humidified, 5% CO2 atmosphere. On the day of the experiment, the cell culture medium was replaced by fresh medium supplemented with either test compounds (working concentration: 50 µM; prepared by 1:200 dilution from a 10 mM stock solution in 100% DMSO with cell culture medium) or vehicle (0.5% DMSO in cell culture medium), and the cells were incubated for 72 h. Subsequently, 20 µL of the MTS solution was added per well and the plate was incubated in the CO2 incubator for another 2 h. Afterwards, the absorbance was measured at a wavelength of 490 nm using a microplate reader (Model 680 microplate reader, Bio-Rad Laboratories GmbH, Feldkirchen, Germany).

[6] = test system: human U251-MG glioblastoma cells; assay: MTS assay, cancer cell viability, U251-MG; type: cell-based; details: U-251, 72 h, mean ± SD, n = 3, read-out: Cell Viability [%] (Vehicle = 100%) U251-MG
Method: as §2, §3

[7] = Solubility observed in cell culture medium; type: physicochemical; details: 50 µM in cell culture medium supplemented with 0.5% DMSO

Sequence of human recombinant HDAC3/NcoR2 (O15379 whole entry): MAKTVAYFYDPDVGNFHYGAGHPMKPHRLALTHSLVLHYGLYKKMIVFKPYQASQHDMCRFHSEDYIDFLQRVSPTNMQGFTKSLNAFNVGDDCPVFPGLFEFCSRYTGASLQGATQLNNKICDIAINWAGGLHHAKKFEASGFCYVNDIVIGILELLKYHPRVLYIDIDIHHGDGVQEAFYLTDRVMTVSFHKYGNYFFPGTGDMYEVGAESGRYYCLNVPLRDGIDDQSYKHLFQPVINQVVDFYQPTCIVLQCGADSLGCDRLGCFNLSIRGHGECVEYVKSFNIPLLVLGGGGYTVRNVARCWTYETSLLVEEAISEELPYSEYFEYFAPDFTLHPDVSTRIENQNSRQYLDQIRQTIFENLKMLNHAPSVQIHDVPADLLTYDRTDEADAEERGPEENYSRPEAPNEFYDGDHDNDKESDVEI
Sequence of human recombinant HDAC3/NcoR2 (Q9Y618 395-489 partner limits assumed): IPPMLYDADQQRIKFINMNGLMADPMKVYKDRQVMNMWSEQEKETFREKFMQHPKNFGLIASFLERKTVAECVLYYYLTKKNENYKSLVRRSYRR
T1 sequence (Q92769 whole entry): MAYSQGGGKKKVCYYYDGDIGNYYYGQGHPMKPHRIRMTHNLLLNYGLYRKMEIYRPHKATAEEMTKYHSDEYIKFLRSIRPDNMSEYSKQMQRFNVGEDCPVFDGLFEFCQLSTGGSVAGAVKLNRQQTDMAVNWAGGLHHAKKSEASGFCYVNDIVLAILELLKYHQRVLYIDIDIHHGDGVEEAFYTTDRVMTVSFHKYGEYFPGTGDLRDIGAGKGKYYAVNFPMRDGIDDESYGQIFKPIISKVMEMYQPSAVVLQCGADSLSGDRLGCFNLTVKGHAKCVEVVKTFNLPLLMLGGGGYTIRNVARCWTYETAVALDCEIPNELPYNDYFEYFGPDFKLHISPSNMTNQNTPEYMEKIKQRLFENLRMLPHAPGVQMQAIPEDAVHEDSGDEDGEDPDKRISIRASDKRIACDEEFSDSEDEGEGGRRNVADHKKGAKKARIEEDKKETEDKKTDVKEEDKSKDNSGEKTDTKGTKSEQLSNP
T3 sequence (Q13547 whole entry): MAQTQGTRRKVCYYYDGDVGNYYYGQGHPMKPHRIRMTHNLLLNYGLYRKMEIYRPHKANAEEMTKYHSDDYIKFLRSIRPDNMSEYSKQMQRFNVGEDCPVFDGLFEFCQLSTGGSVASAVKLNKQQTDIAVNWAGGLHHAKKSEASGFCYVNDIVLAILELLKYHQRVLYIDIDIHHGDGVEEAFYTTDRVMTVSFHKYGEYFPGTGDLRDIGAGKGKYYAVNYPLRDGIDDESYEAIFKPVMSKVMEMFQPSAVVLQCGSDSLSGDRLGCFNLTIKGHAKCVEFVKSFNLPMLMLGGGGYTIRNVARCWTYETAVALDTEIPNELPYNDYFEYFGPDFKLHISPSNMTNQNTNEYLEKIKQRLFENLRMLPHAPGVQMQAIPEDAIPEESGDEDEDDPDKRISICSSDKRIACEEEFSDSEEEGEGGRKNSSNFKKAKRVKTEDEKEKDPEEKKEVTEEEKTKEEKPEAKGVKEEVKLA

Compound | IC50 [1] [nM] | IC50 [2] [nM] | IC50 [3] [nM] | IC50 [4] [nM] | specificity ratio (HDAC1/HDAC3) [1] | viability at 50 µM [5] [%] | viability at 50 µM [6] [%] | specificity ratio HDAC1 over HDAC6 ([3]; from IC50 values) | solubility in cell culture medium [7]
CC(F)C(=O)Nc1ccc(C(=O)Nc2cc(-c3ccco3)ccc2N)cc1 (stereo not drawn) [BA8, N-[2-amino-5-(furan-2-yl)phenyl]-4-(2-fluoropropanamido)benzamide] | 4200 ± 80 | 82.1 ± 0.1 | > 10000 | 24.2 ± 2.9 |  |  |  |  | 
CC(F)C(=O)NCc1ccc(C(=O)Nc2cc(-c3ccco3)ccc2N)cc1 (stereo not drawn) [BA7, N-[2-amino-5-(furan-2-yl)phenyl]-4-[(2-fluoropropanamido)methyl]benzamide] | 3800 ± 180 | 69.1 ± 1.2 | > 10000 | 20.4 ± 0.3 |  |  |  |  | 
CC(F)C(=O)NCc1ccc(C(=O)Nc2cc(-c3cccs3)ccc2N)cc1 (stereo not drawn) [BA1, N-[2-amino-5-(thiophen-2-yl)phenyl]-4-[(2-fluoropropanamido)methyl]benzamide] | 2300 ± 190 | 64.3 ± 4.5 | > 10000 | 4.8 ± 0.4 | 479 |  |  |  | 
CC(=O)Nc1ccc(C(=O)Nc2ccccc2N)cc1 [tacedinaline] |  |  |  |  |  | 27.1 ± 3 | 28.5 ± 3 |  | 
CC(F)C(=O)NCc1ccc(C(=O)Nc2cc(-c3ccoc3)ccc2N)cc1 (stereo not drawn) [BA9, N-[2-amino-5-(furan-3-yl)phenyl]-4-[(2-fluoropropanamido)methyl]benzamide] | 2400 ± 250 | 56.3 ± 0.2 | > 10000 | 19.8 ± 0.4 |  |  |  |  | 
CC(F)C(=O)NCc1ccc(C(=O)Nc2cc(-c3ccsc3)ccc2N)cc1 (stereo not drawn) [BA3, N-[2-amino-5-(thiophen-3-yl)phenyl]-4-[(2-fluoropropanamido)methyl]benzamide] | > 1110 | 39.9 ± 3.2 | > 10000 | 4.8 ± 0.6 | > 230 |  |  | > 2080 | slight precipitation
Nc1ccccc1NC(=O)c1ccc(CNC(=O)OCc2cccnc2)cc1 [entinostat] |  |  |  |  |  | 27.5 ± 4.4 | 55 ± 11.2 |  | 
CC(F)C(=O)Nc1ccc(C(=O)Nc2cc(-c3ccoc3)ccc2N)cc1 (stereo not drawn) [BA10, N-[2-amino-5-(furan-3-yl)phenyl]-4-(2-fluoropropanamido)benzamide] | 3300 ± 480 | 47.7 ± 2.9 | > 10000 | 17 ± 1.2 |  |  |  |  | 
CC(F)C(=O)Nc1ccc(C(=O)Nc2cc(-c3ccc(F)cc3)ccc2N)cc1 (stereo not drawn) [BA6, N-(4-amino-4′-fluoro-[1,1′-biphenyl]-3-yl)-4-(2-fluoropropanamido)benzamide] | > 1110 | 56.6 ± 0.6 | > 10000 | 14.9 ± 0.4 | > 74 |  |  |  | 
O=C(CCCCCCC(=O)Nc1ccccc1)NO [vorinostat] |  |  |  |  |  | 24.4 ± 7.9 | 36.9 ± 7.6 |  | 
CC(F)C(=O)Nc1ccc(C(=O)Nc2cc(-c3cccs3)ccc2N)cc1 (stereo not drawn) [BA2, N-[2-amino-5-(thiophen-2-yl)phenyl]-4-(2-fluoropropanamido)benzamide] | > 1110 | 33.5 ± 1.5 | > 10000 | 8.3 ± 1.4 |  |  |  |  | 
CC(F)C(=O)Nc1ccc(C(=O)Nc2cc(-c3ccsc3)ccc2N)cc1 (stereo not drawn) [BA4, N-[2-amino-5-(thiophen-3-yl)phenyl]-4-(2-fluoropropanamido)benzamide] | > 3330 | 38.1 ± 4.5 | > 10000 | 11.2 ± 2.4 |  |  |  |  | 
CC(F)C(=O)NCc1ccc(C(=O)Nc2cc(-c3ccc(F)cc3)ccc2N)cc1 (stereo not drawn) [BA5, N-(4-amino-4′-fluoro-[1,1′-biphenyl]-3-yl)-4-[(2-fluoropropanamido)methyl]benzamide] | 1300 ± 70 | 32.2 ± 5.5 | > 10000 | 10.2 ± 0.4 |  |  |  |  | 
